How the values were obtained:
liver [1] = assay: Relative hepatotoxicity of chloroform: serum glutamic-pyruvic transaminase (SGPT) level as indicator of liver damage after inhalation (Example 3); assay type: in vivo, male Fischer 344 rats; details: 0.36 percent (v/v); for SGPT level: inhaled two hours, blood collected after 24 hours, room air control 24.8 mμ/ml ± 2, groups of 10
From the text: (§1) Appl. Pharmacol., 9, 139-151 (1966), which used the serum glutamic-pyruvic transaminase (SGPT) level as an indicator of liver damage.

male Fischer 344 rats [2] = details: 0.36 percent (v/v), two hours
Description: Halothane and deuterated halothane were vaporized by metering the liquid compounds at a controlled rate into a temperature regulated vaporization flask held at 150° C. The vapor was swept into the air inlet of a 30 liter glass exposure chamber at a rate of 6 liters/minute. The concentration of the anesthetic in the exposure chamber was monitored by gas-liquid chromatography using direct gas sampling loops.
Using the same equipment to expose the animals as that of Example 2, three groups of 10 male Fischer 344 rats were exposed to room air, 0.36 percent (v/v) chloroform and 0.36 percent (v/v) deuterated chloroform for two hours. The animals were maintained two to a cage for 24 hours following the exposure. At the end of this period, the animals were decapitated and blood was collected in plastic centrifuge tubes and allowed to clot. The SGPT levels were determined using a commercially available method. SGPT concentrations of each group of animals were compared with the other groups by nonparametric analysis of variance.

liver [3] = details: cited from earlier work; for damage to the liver: literature: Anesth. 45, 622 (1976) and 43, 392 (1975)
liver [4] = assay: SGPT as indication of liver toxicity after anesthesia with halothane and deuterated halothane (Example 4); assay type: in vivo, Fischer 344 rats; details: 1 percent (v/v) in air, two hours; for SGPT levels, comparison with the control: 24 hours; for SGPT: blood collected after 24 hours, control 18.8
Description: as §1
Using the same techniques as described in Example 3 above, Fischer 344 rats were anesthetized for two hours with halothane and deuterated halothane using an anesthetic concentration of 1 percent (v/v) in air. After 24 hours, the animals were sacrificed and the blood collected from each. SGPT was run on each blood sample as in indication of liver toxicity.

male Fischer 344 rats [5] = assay: Anesthetic properties on inhalation, halothane vs deuterated analogue (Example 2); assay type: in vivo; details: 0.75 volume/volume, 2 hours
Description: (§2) Three groups of 6 male Fischer 344 rats (6 months of age, 200-300 grams) were exposed to room air and 0.75 volume/volume halothane or the deuterated analogue for a period of 2 hours. Following exposure, all animals were maintained for 72 hours. […] The serum inorganic bromide concentration was determined using a specific ion electrode (Orion).

[6] = Serum inorganic bromide concentration 72 hours after inhalation exposure; assay type: in vivo, male Fischer 344 rats; details: 0.75 volume/volume, inhaled 2 hours, analysis of variance
Description: as §2

| SMILES | SGPT level (liver [1]) [mμ/ml] | anesthetic properties, difference between chloroform and deuterated chloroform (male Fischer 344 rats [2]) | damage to the liver (liver [3]) | SGPT level, difference between chloroform and deuterated chloroform treated groups (liver [1]; two hours, 24 hours, nonparametric analysis of variance) | SGPT levels, comparison with the control (liver [4]) | SGPT (liver [4]) [mμ/ml] | anesthetic properties, difference between halothane and the deuterated analogue (male Fischer 344 rats [5]) | serum bromide levels, comparison of halothane with deuterated halothane [6] | inorganic bromide in the blood (liver [3]; literature: Anesthes. 44, 194 (1976)) |
| --- | --- | --- | --- | --- | --- | --- | --- | --- | --- |
| ClC(Cl)Cl [chloroform] | 56.3 | no difference in the anesthetic properties | in some instances they cause damage to the liver |  |  |  |  |  |  |
| [2H]C(Cl)(Cl)Cl [deuterated chloroform] | 38.3 | no difference in the anesthetic properties |  | significant at p<0.05 |  |  |  |  |  |
| [2H]C(Cl)(Br)C(F)(F)F (stereo not drawn) [deuterated halothane, 2-bromo-2-chloro-1,1,1-trifluoroethane-d] |  |  |  |  | not significantly different from the control | 19.6 | No difference in anesthetic properties |  |  |
| FC(F)(F)C(Cl)Br (stereo not drawn) [halothane, 2-bromo-2-chloro-1,1,1-trifluorethane] |  |  | in some instances they cause damage to the liver |  | significant increase in SGPT levels | 24.0 | No difference in anesthetic properties | significantly higher than those treated with deuterated halothane, p<0.01 | elevation of inorganic bromide in the blood |

From US4069346A, “Compositions and methods for anesthetizing an animal using deuterated analogues of halothane and chloroform” (The Dow Chemical Company, priority 1977, dated 1978)
